How the values were obtained:
[1] = system: A2780 ovarian carcinoma xenograft; test: in vivo xenograft study with IMT and MEKi in A2780
Procedure: Time course of tumour growth (top) and body weight change (bottom). Transplant with A2780 on day 0, stratification on day six into six groups (n=8). Treatment with vehicle formulation, twice daily 25 mg/kg or 12.5 mg/kg Selumetinib, once daily 100 mg/kg (3S)-1-[(2R)-2-[4-(2-chloro-4-fluoro-phenyl)-2-oxo-chromen-7-yl]oxypropanoyl]piperidine-3-carboxylic acid, or the combination of IMT with 12.5 mg/kg MEKi or 25 mg/kg MEKi as indicated. Error bars indicate the standard deviation of the respective group. * indicates significant differences from the control group (nonparametric Whitnes-U test, p<0.05).
Female NMRI: nu/nu mice were injected subcutaneously with the ovarian carcinoma cell line and, after reaching a palpable tumour volume of 0.2 cm3, were randomized and divided into groups of eight animals each. In addition to a control group, which was administered only with the vehicle formulation, additional groups were given 100 mg/kg (3S)-1-[(2R)-2-[4-(2-chloro-4-fluoro-phenyl)-2-oxo-chromen-7-yl]oxypropanoyl]piperidine-3-carboxylic acid, 12.5 mg/kg AZD6244, 25 mg/kg AZD6244 or the combination of 100 mg/kg (3S)-1-[(2R)-2-[4-(2-chloro-4-fluoro-phenyl)-2-oxo-chromen-7-yl]oxypropanoyl]piperidine-3-carboxylic acid and 12.5 or 25 mg/kg AZD6244 was administered. The substance was administered orally over 21 days, twice daily in 25% PEG400, 57% HPbCD. […]

[2] = system: A2780; test: CellTiter-GLO (CTG) assay, combinatorial matrix; type: cell-based; settings: for Measured residual activity (%) based on an untreated control group (=100%): A2780, 72 h, cellular ATP content (CellTiter-GLO)
Procedure: To determine the in vitro cellular viability, cellular ATP concentrations were measured using a luminescence-based homogenous assay format, as described here. […] Optimal cell density for each cell line was determined to guarantee linearity. For viability assays with compounds, cells were then seeded at a density of 200 to 1000 per well in 25 μl in 384-well plates (Greiner Bio-One, Frickenhausen, Germany). After overnight incubation at 37° C./5% CO2, 25 nl or 75 nl compounds were added to each sample well by using BIOMEK FXP Laboratory Automation Workstation (Beckman Coulter, USA). Wells with cells and 0.1% or 0.3% DMSO in culture medium were used as positive controls, wells with cells and 10 μM staurosporine (Selleck Chemicals, Huston, USA) in culture medium were used as negative controls. Upon incubation with compounds for 72 h at 37° C./5% CO2 25 μl Cell Titer Glo reagent (Promega, Madison, USA, European Pat. No. 1131441, U.S. Pat. Nos. 7,083,911, 7,452,663 and 7,732,128) 1:2 diluted with cell culture medium) was added to each well to determine cell viability. 384well-plates were placed for 2 min on an orbital microplate shaker and incubated for further 10 min at room temperature resulting in a stabilization of light signal. Luminescence was measured by Envision Plate Reader (Perkin Elmer, USA).
All in vitro cell culture experiments were carried out under near physiological glucose concentrations (5 mM) in at least two independent replicates.

[3] = system: HEC59; test: CellTiter-GLO (CTG) assay, combinatorial matrix; type: cell-based; settings: 30 μM to 15 nM IMT + 30 μM to 40 nM BAY-876
[4] = PK and toxicological studies, plasma and liver concentrations; type: in vivo; settings: oral combination of the IMT and Venetoclax in 0.5% methyl cellulose in water, NBSGW mice, 4 hours, plasma and liver (FIG. 4)
Procedure: Combinations s of 2-[(3R)-1-[(2R)-2-[4-(2-chloro-4-fluoro-phenyl)-2-oxo-chromen-7-yl]oxypropanoyl]-3-piperidyl]acetic acid and Venetoclax were administered orally in a formulation of 0.5% methyl cellulose in water, before the respective substance concentrations (y-axis) of Venetoclax (left) or 2-[(3R)-1-[(2R)-2-[4-(2-chloro-4-fluoro-phenyl)-2-oxo-chromen-7-yl]oxypropanoyl]-3-piperidyl]acetic acid (right) after 4 hours and extraction from blood plasma or liver tissue were analysed by LC-MS. Error bars indicate the standard deviation around the mean of the multiple measurements.
For this, a vehicle formulation suitable for the oral administration of the combination of Venetoclax and 2-[(3R)-1-[(2R)-2-[4-(2-chloro-4-fluoro-phenyl)-2-oxo-chromen-7-yl]oxypropanoyl]-3-piperidyl]acetic acid was prepared to examine its pharmacokinetic suitability. Since the formulations based on ethanol, PEG-400 and Phosal that have been published for Venetoclax have not proven to be suitable for generating an administrable solution or suspension of IMT and Venetoclax, a simplified formulation of 0.5% methyl cellulose in water was prepared, which was tested initially in PK and toxicological studies in NBSGW mice (FIG. 4). […] On the other hand, doses that could be safely used were established in this mouse model, with which the subsequent studies could be carried out.

C[C@@H](Oc1ccc2c(-c3ccc(F)cc3Cl)cc(=O)oc2c1)C(=O)N1CCC[C@H](C(=O)O)C1 [(3S)-1-[(2R)-2-[4-(2-chloro-4-fluoro-phenyl)-2-oxo-chromen-7-yl]oxypropanoyl]piperidine-3-carboxylic acid]
final tumour volume after completion of the study ([1]; 100 mg/kg IMT + 12.5 or 25 mg/kg AZD6244, oral, 21 days, compared to the same amounts of MEK inhibitor alone (FIG. 2)): advantage of the combination treatment
tolerability (changes in body weight, acute overt effects) ([1]; combination administration of IMT and AZD6244 over the course of the study): well tolerated
Measured residual activity (%) based on an untreated control group (=100%) ([2]; Teriflunomide 0 = IMT alone at the concentration (μM) in c1 of the row, IMT 0.12 µM): 32%
Measured residual activity (%) based on an untreated control group (=100%) ([2]; Teriflunomide 0 = IMT alone at the concentration (μM) in c1 of the row, IMT 15 µM): 28%
Measured residual activity (%) based on an untreated control group (=100%) ([2]; Teriflunomide 0.04 (μM) + IMT (μM) (30-0), IMT 0.12 µM): 31%
Measured residual activity (%) based on an untreated control group (=100%) ([2]; Teriflunomide 0.04 (μM) + IMT (μM) (30-0), IMT 0.47 µM): 28%
Measured residual activity (%) based on an untreated control group (=100%) ([2]; Teriflunomide 0.04 (μM) + IMT (μM) (30-0), IMT 7.5 µM): 27%
Measured residual activity (%) based on an untreated control group (=100%) ([2]; Teriflunomide 0.1 (μM) + IMT at the concentration (μM) in c1 of the row (30-0), IMT 0.23 µM): 29%
Measured residual activity (%) based on an untreated control group (=100%) ([2]; Teriflunomide 0.1 (μM) + IMT at the concentration (μM) in c1 of the row (30-0), IMT 7.5 µM): 22%
Measured residual activity (%) based on an untreated control group (=100%) ([2]; Teriflunomide 0.4 (μM) + IMT at the concentration (μM) in c1 of the row (30-0), IMT 0.06 µM): 32%
Measured residual activity (%) based on an untreated control group (=100%) ([2]; Teriflunomide 0.4 (μM) + IMT at the concentration (μM) in c1 of the row (30-0), IMT 7.5 µM): 22%
Measured residual activity (%) based on an untreated control group (=100%) ([2]; Teriflunomide 0.4 (μM) + IMT at the concentration (μM) in c1 of the row (30-0), IMT 15 µM): 25%
Measured residual activity (%) based on an untreated control group (=100%) ([2]; Teriflunomide 1.1 (μM) + IMT at the concentration (μM) in c1 of the row (30-0), IMT 0.06 µM): 30%
Measured residual activity (%) based on an untreated control group (=100%) ([2]; Teriflunomide 1.1 (μM) + IMT at the concentration (μM) in c1 of the row (30-0), IMT 0.94 µM): 23%
Measured residual activity (%) based on an untreated control group (=100%) ([2]; Teriflunomide 3.3 (μM) + IMT at the concentration (μM) in c1 of the row (30-0), IMT 0.06 µM): 24%
Measured residual activity (%) based on an untreated control group (=100%) ([2]; Teriflunomide 3.3 (μM) + IMT at the concentration (μM) in c1 of the row (30-0), IMT 0.47 µM): 23%
Measured residual activity (%) based on an untreated control group (=100%) ([2]; Teriflunomide 3.3 (μM) + IMT at the concentration (μM) in c1 of the row (30-0), IMT 30 µM): 22%
Measured residual activity (%) based on an untreated control group (=100%) ([2]; Teriflunomide 10 (μM) + IMT at the concentration (μM) in c1 of the row (30-0), IMT 0.12 µM): 23%
Measured residual activity (%) based on an untreated control group (=100%) ([2]; Teriflunomide 10 (μM) + IMT at the concentration (μM) in c1 of the row (30-0), IMT 0.94 µM): 19%
Measured residual activity (%) based on an untreated control group (=100%) ([2]; Teriflunomide 30 (μM) + IMT at the concentration (μM) in c1 of the row (30-0), IMT 0.03 µM): 19%
Measured residual activity (%) based on an untreated control group (=100%) ([2]; Teriflunomide 30 (μM) + IMT at the concentration (μM) in c1 of the row (30-0), IMT 30 µM): 13%
combination of IMT and GLUTi compared to treatment with only the GLUTi BAY-876 alone ([2]; A2780, CTG matrix, 30 μM to 15 nM IMT + 30 μM to 40 nM BAY-876): advantage of the combination
combination of IMT and GLUTi compared to treatment with only the GLUTi BAY-876 alone [3]: advantage of the combination

CC1(C)CCC(CN2CCN(c3ccc(C(=O)NS(=O)(=O)c4ccc(NCC5CCOCC5)c([N+](=O)[O-])c4)c(Oc4cnc5[nH]ccc5c4)c3)CC2)=C(c2ccc(Cl)cc2)C1 [Venetoclax]
PK parameters, in particular the plasma and tissue concentrations [4]: do not significantly influence one another

From patent publication US20240252454A1, “COMPOSITION COMPRISING AN INHIBITOR OF MITOCHONDRIAL TRANSCRIPTION” (LEAD DISCOVERY CENTER GMBH, priority 2021, published 2024)
